This data set relates to HeLa cells.

As usually defined, the EC50 is the midpoint of the concentration-response curve.

In the case of `N#Cc1c(-n2c(Br)c(Br)c3cc(Br)ccc32)[nH]c2c(Br)cc(Br)cc12` [AETX, aetokthonotoxin], the “Cytotoxicity EC50 on HeLa cells converted to mass concentration” value was found to be 0.65 µg/mL and the concentration for a half-maximal effect (EC50) is 1000 nM.

These data come from publication PMC10556625 (Proceedings of the National Academy of Sciences of the …, 2023).
